Measured values taken from patent US8569382B2, “Isolated compounds from Phaleria macrocarpa as anti-cancer agents” (PT. Dexa Medica, priority 2008, dated 2013).
Converted amounts (≈) assume the structure as drawn.

Legend:
Assay type in all cases: cell-based
[1] = test system: MDA-MB-231 cancer cells; assay: Anti-proliferation assay of MDA-MB-231 cancer cells (MTT); details: for effect on proliferation of MDA-MB-231 cells (percentage of alive cancer cell): with increase of concentration, FIG. 7 (F1), FIG. 8 (E2.2)
Experimental: (§1) In this assay, the effect of E2.2 and F1 compounds as anti proliferation and E2.2 compound as apoptosis inducer against MDA-MB-231 cancer cells will be observed. MDA-MB-231 cells were cultured in supplemented medium cells, and then incubated at temperature 37° C., 5% CO2.
This assay was performed in 96-well plates. Each well contained certain cancer cell density. After incubation for 24 hours, medium was changed into serum free medium, after that it was added with E2.2 compound sample as a single agent in various concentrations, so was with F1 compound. Cells were then re-incubated and after that the number of alive cells after treatment was determined by cell death determination assay. Absorbance value was read in microplate reader. After the absorbance value was converted with standard curve, the number of alive and death cells can be obtained.
Percentage of the number of alive cells in each treatment can be counted by counting the number of alive cells at wells that received treatment divided with the number of alive cells at healthy control and multiplied with 100%. % The number of alive cells=B/A×100% Notes: A is the number of alive cells at healthy control, and B is the number of alive cells that received treatment. IC50 value is a number showing a sample concentration that causes death as much as 50% in a population. Such value is obtained using BioStat statistical program. b. DNA Fragmentation Analysis Method

[2] = test system: MDA-MB-231 cells; assay: DNA fragmentation analysis (DNA Apoptosis Ladder Kit, gel electrophoresis); details: MDA-MB-231 cells, 50, 75, and 100 μg/mL; FIG. 9
Experimental: as §1
Apoptosis is an active process of cell death marked with DNA chromosome cleavage, chromatin condensation, and also DNA fragmentation. In this experiment, it was observed the effect of E2.2 compound addition toward the formation of DNA fragmentation as one of apoptosis indicators. Cells were cultured in the plates. After incubation for 24 hours, it was added with E2.2 compound in various concentrations. DNA fragmentation determination was performed using DNA Apoptosis Ladder Kit.

[3] = test system: BCl2 mRNA expression; assay: BCl2 RT-PCR in MDA-MB-231 cells; details: various concentrations, serum free medium, FIGS. 10a, 10b
Experimental: (§2) BCl2 and Bax genes are genes acting in apoptosis process. To identify BCl2 and Bax mRNA expressions, RT-PCR (reverse-transcription PCR) was performed. MDA-MB-231 cancer cells were grown in plates and added with E2.2 compound samples as a single agent in various concentrations. Experiment condition was performed in serum free medium. RNA total was isolated from MDA-MB-231 cancer cells. RNA isolation products were quantified using spectrophotometer and visualized by agarose gel electrophoresis technique. The RNAs were then used in RT-PCR process using specific primers. RT-PCR process was performed in PCR machine with optimized condition.

[4] = test system: Bax mRNA expression; assay: Bax RT-PCR in MDA-MB-231 cells; details: various concentrations, serum free medium, FIGS. 11a, 11b
Experimental: as §2

Compound | IC50 ([1]; Homo sapiens, MDA-MB-231 cells, MTT result, serum free medium, BioStat statistical program) [mg/L] | effect on proliferation of MDA-MB-231 cells (percentage of alive cancer cell) [1] | formation of DNA fragments (apoptosis marker) [2] | BCl2 mRNA expression [3] | Bax mRNA level [4] | IC50 value ([1]; MDA-MB-231 cells, MTT result, serum free medium, BioStat statistical program) [mg/L]
COc1cc(O)c(C(=O)c2ccc(O)cc2)c(O)c1 [E2.2, 2,4′,6-trihydroxy-4-methoxybenzophenone] | 36.9 (≈ 142 µM) | anti proliferation effect | apoptosis inducer effect | downregulation | upregulation | 
COc1cc(O)c(C(=O)c2ccc(O)cc2)c(O[C@@H]2O[C@H](CO)[C@@H](O)[C@H](O)[C@H]2O)c1 [F1, 4′,6-di-hydroxy-4-methoxybenzophenone-2-O-β-D-glycopyranoside] |  | anti proliferation effect |  |  |  | 65.80 (≈ 156 µM)
